Data from the supplement of paper PMC8967900.

Tests used:
Test in all cases: selective drug sensitivity score (sDSS, relative to normal bone marrow) (sDSS (score)); higher = more potent and effective on the cell line relative to normal bone marrow cells
Conditions in all cases: 72 h
ALL-SIL = system: ALL-SIL
COG-LL-317 = system: COG-LL-317
COG-LL-319h = system: COG-LL-319h
COG-LL-355h = system: COG-LL-355h
DND-41 = system: DND-41
HPB-ALL = system: HPB-ALL
KARPAS-45 = system: KARPAS-45
LC4-1 = system: LC4-1
MOLT-14 = system: MOLT-14
MOLT-16 = system: MOLT-16
MOLT-4 = system: MOLT-4
NALM-6 = system: NALM-6
P12-ICHIKAWA = system: P12-ICHIKAWA
PEER = system: PEER
RCH-ACV = system: RCH-ACV
REH = system: REH
RPMI-8402 = system: RPMI-8402
SEM cells = system: SEM cells
TANOUE = system: TANOUE
TMD5 = system: TMD5
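Also: ALL cell lines in 384-well plates, five doses spanning 10,000-fold, each plate scaled between vehicle and 100 µmol/L benzalkonium chloride controls, sDSS an adapted area-under-curve metric.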

Compound | selective drug sensitivity score (ALL-SIL) | selective drug sensitivity score (COG-LL-317) | selective drug sensitivity score (COG-LL-319h) | selective drug sensitivity score (COG-LL-355h) | selective drug sensitivity score (DND-41) | selective drug sensitivity score (HPB-ALL) | selective drug sensitivity score (KARPAS-45) | selective drug sensitivity score (LC4-1) | selective drug sensitivity score (MOLT-14) | selective drug sensitivity score (MOLT-16) | selective drug sensitivity score (MOLT-4) | selective drug sensitivity score (NALM-6) | selective drug sensitivity score (P12-ICHIKAWA) | selective drug sensitivity score (PEER) | selective drug sensitivity score (RCH-ACV) | selective drug sensitivity score (REH) | selective drug sensitivity score (RPMI-8402) | selective drug sensitivity score (SEM cells) | selective drug sensitivity score (TANOUE) | selective drug sensitivity score (TMD5)
CNS(=O)(=O)Nc1nccc(Cc2c(C)c3ccc(Oc4ncccn4)cc3oc2=O)c1F (top concentration 1000 nM) | 0.42 | -1.08 | -1.18 | 0.02 | 3.92 | -1.18 | -0.28 | -0.18 | -0.98 | 1.42 | -1.18 | -0.88 | -0.98 | 0.22 | 0.42 | -0.38 | 0.12 | 1.82 | -1.18 | -1.18
C[C@H]1Oc2cc(cnc2N)-c2c(nn(C)c2C#N)CN(C)C(=O)c2ccc(F)cc21 (top concentration 1000 nM) | -0.32 | -0.72 | 7.38 | 2.18 | -0.72 | -0.72 | -0.72 | -0.72 | -0.72 | -0.32 | -0.72 | -0.72 | -0.72 | -0.72 | 3.38 | -0.72 | -0.72 | -0.72 | -0.72 | -0.62
CCc1cncnc1N1CCN(Cc2nc3cc(C(F)(F)F)ccc3[nH]2)CC1 (top concentration 10000 nM) | 1.76 | 1.26 | 1.46 | -0.14 | 0.56 | 0.96 | 2.46 | 4.16 | 0.16 | 4.86 | 2.16 | 1.96 | 3.66 | 4.56 | 6.46 | 6.26 | 5.96 | 9.76 | 3.26 | -0.84
CN(C)CC#Cc1ccc(OCCCc2sc(N3CCc4cccc(C(=O)Nc5nc6ccccc6s5)c4C3)nc2C(=O)O)c(F)c1 (top concentration 10000 nM) | 37.6 | 39.8 | 21.7 | 27.2 | 34 | 24.9 | 38.5 | 0.36 | 12.3 | 0.56 | 34.8 | 11.3 | 39.3 | 31.8 | -1.54 | -1.84 | 27.9 | -0.24 | -3.34 | -3.64
O=C(NC[C@H](O)CN1CCc2ccccc2C1)c1cc(NC2COC2)ncn1 (top concentration 10000 nM) | -0.06 | 10.6 | 9.34 | -0.06 | -0.06 | 3.44 | 0.04 | -0.06 | -0.06 | 1.54 | 2.74 | -0.06 | 0.24 | -0.06 | 1.24 | -0.06 | -0.06 | -0.06 | -0.06 | -0.06
O=C1Cc2cc(C(=O)NC3C[C@H]4CC[C@@H](C3)N4S(=O)(=O)CC3CCN(CCCC(F)(F)F)CC3)c(Cl)cc2N1 (stereo not given in full) (top concentration 10000 nM) | 0 | 0 | 0 | 0.9 | 0 | 0.5 | 0 | 0 | 0 | 0 | 0 | 0 | 0 | 0 | 0 | 3.5 | 0 | 0 | 0 | 2.6
CC/C(=C(\c1ccc(O)cc1)c1ccc(OCCN(C)C)cc1)c1ccccc1 [4-hydroxytamoxifen] (top concentration 10000 nM) | 1.22 | 0.62 | -4.48 | 1.72 | 2.72 | 0.52 | 1.52 | 0.72 | 0.32 | 3.02 | 0.62 | 0.02 | 2.02 | 2.32 | 0.72 | 4.02 | 2.62 | 1.62 | -2.88 | -1.78
COCC1(CO)C(=O)C2CCN1CC2 (stereo not given) [APR-246] (top concentration 10000 nM) | -1.16 | -1.16 | 7.44 | 2.44 | -1.16 | 2.14 | -1.16 | 0.74 | -1.16 | 1.04 | -1.16 | 1.14 | -1.16 | -1.16 | -1.16 | -1.16 | -1.16 | -1.16 | 4.54 | -1.16
Cc1sc2c(c1C)C(c1ccc(Cl)cc1)=N[C@@H](CC(=O)Nc1ccc(OCCOCCOCCOCCNc3cccc4c3C(=O)N(C3CCC(=O)NC3=O)C4=O)cc1)c1nnc(C)n1-2 (stereo not given in full) [ARV-825] (top concentration 300 nM) | -6.46 | -0.26 | 4.04 | 10.2 | 0.84 | -10.9 | -8.06 | 3.64 | -0.86 | 1.44 | -10.4 | 1.24 | -7.46 | -0.46 | 4.44 | -0.26 | 1.04 | 2.24 | -17.1 | 0.14
COc1cc(OC2CCN(C)CC2)ccc1Nc1ncc2c(n1)n(C1CCCC1)c(=O)n2C [AZ3146] (top concentration 10000 nM) | 2.14 | 0.74 | 7.04 | 2.94 | 0.24 | 3.14 | 0.94 | 3.14 | 2.04 | 0.44 | 1.84 | 3.04 | 0.64 | 2.54 | 1.24 | 1.14 | 1.94 | 2.04 | -4.16 | -4.06
CN(C)CCCOc1ccc(-c2ccc3ncc4c(c3c2)n(C2CCOCC2)c(=O)n4C)cn1 [AZD0156] (top concentration 1000 nM) | 1.84 | -0.06 | 3.84 | 0.74 | 4.14 | 0.24 | 0.14 | 1.04 | 0.14 | 0.54 | -0.06 | -0.06 | 0.14 | -0.06 | 7.24 | 0.84 | 0.14 | 1.14 | -0.06 | -0.06
N#Cc1ccc2[nH]c(O)c(-c3ccc(CN4CCOCC4)cn3)c2c1 [AZD-1080] (top concentration 10000 nM) | -0.02 | 3.38 | 6.28 | 3.98 | -0.02 | -0.02 | -0.02 | 3.28 | -0.02 | 0.38 | -0.02 | 1.78 | -0.02 | -0.02 | 3.98 | 8.28 | -0.02 | 4.58 | -0.02 | -0.02
CN(C)C/C=C/C(=O)Nc1cc2c(Nc3ccc(F)c(Cl)c3)ncnc2cc1O[C@H]1CCOC1 [Afatinib] (top concentration 1000 nM) | -0.84 | -0.84 | -0.84 | 0.46 | -0.84 | -0.84 | 1.06 | -0.84 | -0.84 | -0.34 | -0.84 | -0.84 | -0.74 | 0.66 | 1.26 | 5.46 | -0.84 | 0.96 | -0.84 | 3.56
O=C(Nc1ccc(OC(F)(F)Cl)cc1)c1cnc(N2CC[C@@H](O)C2)c(-c2cc[nH]n2)c1 [Asciminib] (top concentration 1000 nM) | 31.2 | -0.88 | 10 | 2.02 | 0.22 | 1.62 | -1.98 | -1.98 | -0.28 | 8.42 | 1.12 | 0.42 | -1.98 | 16.2 | -1.98 | -1.98 | -1.98 | 5.72 | 1.12 | 13.6
CC[C@@H]1C(=O)N(C)c2cnc(Nc3ccc(C(=O)NC4CCN(C)CC4)cc3OC)nc2N1C1CCCC1 [BI-2536] (top concentration 1000 nM) | 21.5 | 21.2 | 23.6 | 4.84 | 15.6 | 18.2 | 21.3 | 20.1 | 19 | 9.04 | 19.6 | 13.4 | 20.9 | 20.8 | 15.5 | 16.4 | 22.4 | 20.7 | -8.46 | 10.4
Cc1ccc(NC(=O)c2ccc(CN3CC[C@H](N(C)C)C3)c(C(F)(F)F)c2)cc1Nc1nccc(-c2cncnc2)n1 [Bafetinib] (top concentration 1000 nM) | 34 | 0 | 1.9 | 0.8 | 1 | 0 | 0 | 0.4 | 0.3 | 0 | 0 | 0 | 0 | 15.4 | 0.4 | 0.2 | 0 | 0 | 0 | 9.1
CC[C@H](NC(=O)[C@H](C)NC)C(=O)N1C[C@@H](O)C[C@H]1Cc1c(-c2[nH]c3cc(F)ccc3c2C[C@@H]2C[C@H](O)CN2C(=O)[C@H](CC)NC(=O)[C@H](C)NC)[nH]c2cc(F)ccc12 [Birinapant] (top concentration 1000 nM) | 8.7 | -5 | 14.5 | 13.3 | -5.1 | -5.1 | -5.1 | -5.1 | -5.1 | -1.7 | -5.1 | -4.2 | -5.1 | -4.4 | 3.1 | 1.1 | -3.2 | -5.1 | -5.1 | -0.1
COc1cc2nccc(Oc3ccc(NC(=O)C4(C(=O)Nc5ccc(F)cc5)CC4)cc3)c2cc1OC [Cabozantinib] (top concentration 1000 nM) | 4.48 | -3.62 | -2.22 | 2.18 | -3.62 | -3.02 | -2.42 | -3.02 | 1.28 | -3.62 | -0.92 | -2.82 | -3.62 | 2.08 | -3.62 | 4.58 | -1.62 | 17.6 | -3.62 | -3.62
